Results on two compounds are retold here after patent publication US20120142768A1 (BAXTER INTERNATIONAL INC., priority 2010, published 2012).

Counter-ions that a name gives are not always drawn. Like-named read-outs stand apart in the source and are kept apart here.

Data set [1] can be described thus: Phase solubility of amiodarone with substituted cyclodextrins. The following applies: 5% dextrose, 0.9 mM citrate buffer, pH 3.8, room temperature (FIG. 4).
Description: The actual percent of drug that is complexed will vary according to the complexation equilibrium constant characterizing the complexation of a specific cyclodextrin derivative to a specific drug and to the concentrations of the cyclodextrin derivative and drug available for complexation.
Phase solubility studies can also generate information as to the required amounts of a cyclodextrin needed to solubilize a drug under different conditions such as temperature, cyclodextrin type, or solution composition.
For data set [2] the following is noted: Ravin et al. 1975, cited from earlier work.
For data set [3] the following is noted: cited from earlier work.

Regarding `CCCCc1oc2ccccc2c1C(=O)c1cc(I)c(OCCN(CC)CC)c(I)c1` [amiodarone hydrochloride], the “SBE7-β-CD required for 1.8 mg/mL amiodarone hydrochloride” value in data set [1] is “about 6 mg/mL”.

`CCCCc1oc2ccccc2c1C(=O)c1cc(I)c(OCCN(CC)CC)c(I)c1` [amiodarone]: the Amiodarone concentration achievable in data set [2] (25 °C) is 0.35 mg/mL; in data set [2] (40 °C) it was 0.95 mg/mL; in data set [2] (about 60 °C) it was over 13 mg/mL. The “Critical micellar concentration (CMC)” value is on record as “approximately 0.5 mg/mL” in data set [3] (Ravin et al. 1975) and 1.69 mg/mL in data set [3] (at Krafft point of ~70 °C, Benedini et al. 2010).
